Experimental data reported in ChEMBL document CHEMBL3507680, “University of Dundee, Gates Library screen for HepG2 cell viability”.

Test: Human HepG2 cell viability assay in 384 well format
Format: toxicity, cell-based
Parameters: dose 125 nL, time 70.5 hour; concentration not given beside the values
Details: HepG2 cells, read-out: Inhibition

SMILES: COC(=O)CNC(=O)c1nc(-c2ccccc2OC)c2cnccn12
- cytotoxicity at 70.5 h: -11.4%

SMILES: O=C1NC2(Cc3ccccc31)CN(CC1CCOCC1)C2
- cytotoxicity at 70.5 h: 25.2%

SMILES: Cn1nc(C2CCNCC2)c2c(C(=O)NC3CC3)cc(C3CC3)nc21
- cytotoxicity at 70.5 h: 15%

SMILES: Cn1nc(C2CCNC2)c2c(C(=O)NC3CC3)cc(C3CC3)nc21 (stereo not given)
- cytotoxicity at 70.5 h: 17.5%

SMILES: CC(=O)N1CC2(CCCN2Cc2ccc(Cl)cc2)Cc2ccccc21 (stereo not given)
- cytotoxicity at 70.5 h: 31.4%

SMILES: CC(C)NC(=O)C1CCc2nnc(CNC(=O)c3ccc(Cl)cc3Cl)n21 (stereo not given)
- cytotoxicity at 70.5 h: 1.45%

SMILES: CN(C)C(=O)C1CCc2nnc(CNC(=O)c3ccc(Cl)cc3Cl)n21 (stereo not given)
- cytotoxicity at 70.5 h: 2.11%

SMILES: CC(C)(C)CN1CCCC12Cc1ccccc1CNC2=O (stereo not given)
- cytotoxicity at 70.5 h: -7.71%

SMILES: CC(C)CCN1CCCC12Cc1ccccc1CNC2=O (stereo not given)
- cytotoxicity at 70.5 h: -7.7%

SMILES: CS(=O)(=O)N1Cc2ccccc2CC2(CCN(Cc3ccncc3)C2)C1 (stereo not given)
- cytotoxicity at 70.5 h: -9.23%

SMILES: CC(=O)N1Cc2ccccc2CC2(CCCCN2C)C1 (stereo not given)
- cytotoxicity at 70.5 h: 21.1%

SMILES: CN1CCCCC12Cc1ccccc1CN(C(=O)C1CCCC1)C2 (stereo not given)
- cytotoxicity at 70.5 h: -6.1%

SMILES: CS(=O)(=O)N1CC2(CCN(C3CCCCC3)C2)Cc2ccccc21 (stereo not given)
- cytotoxicity at 70.5 h: 0.278%

SMILES: CS(=O)(=O)N1CC2(CCN(CC3CCCCC3)CC2)Cc2ccccc21
- cytotoxicity at 70.5 h: 29.9%

SMILES: CS(=O)(=O)N1CC2(CCN(CC3CCCCC3)C2)Cc2ccccc21 (stereo not given)
- cytotoxicity at 70.5 h: -3.19%

SMILES: O=C1Nc2ccccc2CN(CC2CCCC2)C12CCNC2 (stereo not given)
- cytotoxicity at 70.5 h: -2.12%

SMILES: O=C(NC1CC1)c1cc(C2CC2)nc2onc(C3CCNCC3)c12
- cytotoxicity at 70.5 h: -4.47%

SMILES: COCCNC(=O)c1cc(C2CC2)nc2onc(C3CCNC3)c12 (stereo not given)
- cytotoxicity at 70.5 h: -7.31%

SMILES: Cc1cc(C(=O)NCC(F)(F)F)c2c(C3CCNCC3)noc2n1
- cytotoxicity at 70.5 h: 25.3%

SMILES: O=C(c1ccc(Cl)cc1)N1CCC(N2CCOC2=O)CC1
- cytotoxicity at 70.5 h: -7.62%

SMILES: O=C(c1ccc(Cl)cc1)N1CCC(N2CCNC2=O)CC1
- cytotoxicity at 70.5 h: -3.41%

SMILES: O=C(c1cscn1)N1CCC2(COc3ncccc3S(=O)(=O)N2)C1 (stereo not given)
- cytotoxicity at 70.5 h: -3.8%

SMILES: CC(C)(C)C(=O)N1CCC2(CNS(=O)(=O)c3cnccc3O2)C1 (stereo not given)
- cytotoxicity at 70.5 h: 41.2%

SMILES: CC(C)NC(=O)N1CCCCC1c1nnc2n1CCNC2 (stereo not given)
- cytotoxicity at 70.5 h: 20.4%

SMILES: O=S1(=O)NCC2(CCCN(Cc3cccnc3)C2)Oc2ncccc21 (stereo not given)
- cytotoxicity at 70.5 h: 26.5%

SMILES: CN1CCC2(CC1)Cc1ccccc1CN(C(=O)CN)C2
- cytotoxicity at 70.5 h: 24.5%

SMILES: O=C1Nc2ccccc2CC12CCCN2Cc1ccc(C(F)(F)F)cc1 (stereo not given)
- cytotoxicity at 70.5 h: 6.34%

SMILES: CCN(CC(=O)NC)C(=O)c1csc(Cc2ccccc2)n1
- cytotoxicity at 70.5 h: -2.3%

SMILES: O=C(NC1CCN(Cc2ccc(F)cc2)CC1)c1ccc2c(c1)CCC2
- cytotoxicity at 70.5 h: -6.88%

SMILES: Cc1cc(C(=O)N2CCNC(=O)CC2)c(C)n1CC(F)(F)F
- cytotoxicity at 70.5 h: 23.5%

SMILES: CC(C)(C)c1noc(CCCC(=O)N2CCNC(=O)CC2)n1
- cytotoxicity at 70.5 h: -6.5%

SMILES: Cc1noc(CCCC(=O)N2CCNC(=O)C2)n1
- cytotoxicity at 70.5 h: -9.21%

SMILES: CC(C)C1C(=O)NCCN1C(=O)CCCc1nc(C(C)(C)C)no1 (stereo not given)
- cytotoxicity at 70.5 h: -3.75%

SMILES: CCOCCC(=O)NC(c1noc(C)n1)c1ccccc1F (stereo not given)
- cytotoxicity at 70.5 h: -7.31%

SMILES: Cc1nc(C(NS(=O)(=O)N(C)C)c2ccccc2F)no1 (stereo not given)
- cytotoxicity at 70.5 h: -2.92%

SMILES: COC(=O)C1CN(Cc2ccn(-c3ccc(F)cc3)n2)C[C@@H](C)O1 (stereo not given in full)
- cytotoxicity at 70.5 h: 21.2%

SMILES: NC(=O)NC1CCN(Cc2ccc(Br)c(F)c2)CC1
- cytotoxicity at 70.5 h: -5.43%

SMILES: CN(Cc1cc(Br)cn1C)C(=O)c1cccnc1
- cytotoxicity at 70.5 h: -8.21%

SMILES: N#Cc1ccc(SCCC(=O)O)cc1
- cytotoxicity at 70.5 h: -7.41%

SMILES: CSCCC(=O)N1CCN(CC(C)(C)O)CC1
- cytotoxicity at 70.5 h: -13.7%

SMILES: CCCNC(=O)c1cnc2n1CCCC2
- cytotoxicity at 70.5 h: -9.22%

SMILES: COC(=O)CC1CN(Cc2ccn(-c3ccc(F)cc3)n2)CCO1 (stereo not given)
- cytotoxicity at 70.5 h: -8.65%

SMILES: CCc1ccc(C(=O)NC2CCN(c3ccn(C)n3)C2)o1 (stereo not given)
- cytotoxicity at 70.5 h: -2.13%

SMILES: CCC(O)CN1CCN(C(=O)CCSC)CC1 (stereo not given)
- cytotoxicity at 70.5 h: 0.756%

SMILES: CSCC(=O)N1CCN(CC(O)C(C)(C)C)CC1 (stereo not given)
- cytotoxicity at 70.5 h: -10.6%

SMILES: CCC1CN(CCCO)c2ccccc2O1 (stereo not given)
- cytotoxicity at 70.5 h: 0.738%

SMILES: COC1CCCN(C(=O)NCc2ccc(C(=O)N(C)C(C)C)cc2)C1 (stereo not given)
- cytotoxicity at 70.5 h: 25.2%

SMILES: CN(CCc1cccs1)C(=O)Nc1ccc2c(c1)C(=O)N(C)CC2
- cytotoxicity at 70.5 h: -7.01%

SMILES: COCCN(Cc1ccccn1)C(=O)Nc1cccnc1N1CCCC1
- cytotoxicity at 70.5 h: -12.3%

SMILES: O=C(COc1ccc(Br)cc1F)Nc1cn[nH]c1
- cytotoxicity at 70.5 h: 15.8%

SMILES: CCCNC(=O)C(C)NC(=O)Nc1ccccc1SC(F)F (stereo not given)
- cytotoxicity at 70.5 h: -13%

SMILES: CCOC1CCN(C(=O)NCc2ccc(CN3CCOCC3)cc2)CC1
- cytotoxicity at 70.5 h: -9.89%

SMILES: CN(CCc1ccccn1)C(=O)Nc1cccnc1N1CCCC1
- cytotoxicity at 70.5 h: 11.3%

SMILES: Cc1cc(N(C)C)nc(N2CCCC2c2cccnc2)n1 (stereo not given)
- cytotoxicity at 70.5 h: -1.47%

SMILES: Cc1nn(C)c(C)c1C(=O)N1CCN(C(=O)CC2CCCCC2)CC1
- cytotoxicity at 70.5 h: 11.5%

SMILES: Cc1nsc(N2CCN(Cc3cccc(F)c3)CC2)n1
- cytotoxicity at 70.5 h: 0.252%

SMILES: Cc1cccc(CN(Cc2ccccn2)Cc2ncc(C(C)(C)C)o2)c1
- cytotoxicity at 70.5 h: -11.5%

SMILES: O=S(=O)(N1CCC(n2cccc2)CC1)N1CCCC1c1ccco1 (stereo not given)
- cytotoxicity at 70.5 h: -10.3%

SMILES: O=C(NCC(O)c1ccc(Cl)s1)c1ccoc1 (stereo not given)
- cytotoxicity at 70.5 h: -8.52%

SMILES: COCCN(Cc1ccc(C)o1)C(=O)Nc1nnc2ccccn12
- cytotoxicity at 70.5 h: -16.7%

SMILES: O=c1[nH]c(C2CCOC2)nc2ccc(Cl)cc12 (stereo not given)
- cytotoxicity at 70.5 h: 7.32%

SMILES: CN1CCc2ccc(NCc3cccs3)cc2C1=O
- cytotoxicity at 70.5 h: -15.5%

SMILES: COCc1nnc(-c2cccc(C(=O)N(C(C)C)C3CCC3)c2)o1
- cytotoxicity at 70.5 h: -12.7%

SMILES: Cc1cc(CNc2cc(-c3ccoc3C)nn2CCO)c(C)o1
- cytotoxicity at 70.5 h: -12.2%

SMILES: COCCCN(Cc1ccncc1)C(=O)C1COc2ccccc2C1 (stereo not given)
- cytotoxicity at 70.5 h: -14.9%

SMILES: COc1cc(NCCNC(=O)c2ccc3[nH]ccc3c2)cc(OC)c1
- cytotoxicity at 70.5 h: -13.8%

SMILES: COc1cc(NCCNC(=O)c2cscc2C)cc(OC)c1
- cytotoxicity at 70.5 h: -2.4%

SMILES: COCc1nnc(-c2cccc(C(=O)OC(C)C)c2)o1
- cytotoxicity at 70.5 h: -8.2%

SMILES: CSC1(CNC(=O)N(C)Cc2sccc2C)CCOCC1
- cytotoxicity at 70.5 h: 29.3%

SMILES: Cc1nc(CN2CCCC2Cn2cccn2)nc2ccccc12 (stereo not given)
- cytotoxicity at 70.5 h: 7.51%

SMILES: O=C(c1cc(-c2ccccc2)nc2onc(C3CC3)c12)N1CC[C@H](O)C1
- cytotoxicity at 70.5 h: -11.3%

SMILES: CCOc1ccc(CN(C)C(=O)c2nc(N3CCCC3)ncc2Cl)cc1
- cytotoxicity at 70.5 h: -8.28%

SMILES: Cc1cc(CN(C)C(=O)CNS(=O)(=O)c2cccs2)no1
- cytotoxicity at 70.5 h: -6.5%

SMILES: N#Cc1cccnc1NCc1cccnc1N1CCCCC1
- cytotoxicity at 70.5 h: 4.49%

SMILES: CCc1nc(NC(=O)Cc2csc(-c3nnc[nH]3)n2)sc1C
- cytotoxicity at 70.5 h: -11.9%

SMILES: CC(C)c1nccn1CC1CCCN1Cc1nc2ccccc2n1C (stereo not given)
- cytotoxicity at 70.5 h: -10.4%

SMILES: CCc1ccc(CCC(=O)N2CCC(=O)Nc3cccnc32)cc1
- cytotoxicity at 70.5 h: 23.9%

SMILES: CC(=O)NC1CCCN(c2nc3ccccc3cc2CO)C1 (stereo not given)
- cytotoxicity at 70.5 h: 2.9%

SMILES: Oc1ccc(Br)c(CNc2cccc(-c3nnc[nH]3)c2)c1
- cytotoxicity at 70.5 h: 1.61%

SMILES: CNC(=O)COC(=O)c1cccc(-n2ccc(C(F)(F)F)n2)c1
- cytotoxicity at 70.5 h: 0.44%

SMILES: CC(C)c1nc(CN(C)S(=O)(=O)c2cccs2)cs1
- cytotoxicity at 70.5 h: 1.87%

SMILES: CCOC(=O)NC1CCCN(c2cncc(Br)c2)C1 (stereo not given)
- cytotoxicity at 70.5 h: 0.767%

SMILES: CCCC(=O)NC1CCCN(c2nc3ccccc3cc2CO)C1 (stereo not given)
- cytotoxicity at 70.5 h: 13.7%

SMILES: CCc1nnc2n1CCN(C(=O)CCc1ccc3c(c1)OCO3)C2
- cytotoxicity at 70.5 h: -18.7%

SMILES: NC(=O)Nc1ccc(C(=O)NCCn2cccc2)cc1
- cytotoxicity at 70.5 h: -11.7%
